In PubChem BioAssay AID1918939 (Molecular Pharmacology Branch, DTP, NCI, 2023):

System: 653999-131-R-J2-PDC complex spheroid viability
Assay: Anticancer human tumor 653999-131-R-J2-PDC patient-derived lung adenocarcinoma cell line growth inhibition
Settings: for IC50: curve of first compound; for viability, T/C: stronger effect = lower value
Outline: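 Complex spheroids of tumor cells with HUVEC and human MSCs, exposed to iadademstat combined with other agents. Each agent tested in half-log steps from near clinical Cmax (else 10 microM top), DMSO ≤0.25%.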

[1] = second compound 0.1 µM, first compound 0.00949 µM
[2] = second compound 0.1 µM, first compound 0.03 µM
[3] = second compound 0.1 µM, first compound 0.0949 µM
[4] = second compound 0.1 µM, first compound 0.3 µM
[5] = second compound 0.1 µM, first compound 0.949 µM
[6] = second compound 0.1 µM, first compound 3 µM
[7] = second compound 0.316 µM, first compound 0.00949 µM
[8] = second compound 0.316 µM, first compound 0.03 µM
[9] = second compound 0.316 µM, first compound 0.0949 µM
[10] = second compound 0.316 µM, first compound 0.3 µM
[11] = second compound 0.316 µM, first compound 0.949 µM
[12] = second compound 0.316 µM, first compound 3 µM
[13] = second compound 1 µM, first compound 0.00949 µM
[14] = second compound 1 µM, first compound 0.03 µM
[15] = second compound 1 µM, first compound 0.0949 µM
[16] = second compound 1 µM, first compound 0.3 µM
[17] = second compound 1 µM, first compound 0.949 µM
[18] = second compound 1 µM, first compound 3 µM
[19] = second compound 3.16 µM, first compound 0.00949 µM
[20] = second compound 3.16 µM, first compound 0.03 µM
[21] = second compound 3.16 µM, first compound 0.0949 µM
[22] = second compound 3.16 µM, first compound 0.3 µM
[23] = second compound 3.16 µM, first compound 0.949 µM
[24] = second compound 3.16 µM, first compound 3 µM
[25] = second compound 10 µM, first compound 0.00949 µM
[26] = second compound 10 µM, first compound 0.03 µM
[27] = second compound 10 µM, first compound 0.0949 µM
[28] = second compound 10 µM, first compound 0.3 µM
[29] = second compound 10 µM, first compound 0.949 µM
[30] = second compound 10 µM, first compound 3 µM
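Note: spheroids exposed to agents for seven days before readout.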

SMILES	IC50 (second compound 0.1 µM) [nM]	IC50 (second compound 0.316 µM) [nM]	IC50 (second compound 1 µM) [nM]	IC50 (second compound 3.16 µM) [nM]	IC50 (second compound 10 µM) [nM]	viability, T/C [1] [%]	viability, T/C [2] [%]	viability, T/C [3] [%]	viability, T/C [4] [%]	viability, T/C [5] [%]	viability, T/C [6] [%]	viability, T/C [7] [%]	viability, T/C [8] [%]	viability, T/C [9] [%]	viability, T/C [10] [%]	viability, T/C [11] [%]	viability, T/C [12] [%]	viability, T/C [13] [%]	viability, T/C [14] [%]	viability, T/C [15] [%]	other results
NS(=O)(=O)OCC1CC(n2ccc3c(NC4CCc5ccccc54)ncnc32)CC1O (stereo not given) + NC1CC1c1ccc(-c2cccc(O)c2)cc1	> 3000	> 3000	> 3000	> 3000	> 3000	94.2	97.9	107	74.1	64.9	60	91.8	95.7	118	81.4	66	61.6	94.4	96.4	113	viability, T/C [16]: 72.7%; viability, T/C [17]: 64.5%; viability, T/C [18]: 60.7%; viability, T/C [19]: 83.2%; viability, T/C [20]: 102%; viability, T/C [21]: 132%; viability, T/C [22]: 64.9%; viability, T/C [23]: 64.7%; viability, T/C [24]: 61.1%; viability, T/C [25]: 94.1%; viability, T/C [26]: 105%; viability, T/C [27]: 132%; viability, T/C [28]: 68.8%; viability, T/C [29]: 61.8%; viability, T/C [30]: 48.2%
Nc1ccccc1NC(=O)c1ccc(CNC(=O)OCc2cccnc2)cc1 + NC1CC1c1ccc(-c2cccc(O)c2)cc1	352	245	293	213	177	89	101	81.5	52.9	22.6	1.35	93	85.8	64.3	49.5	20.4	1.41	81.2	68.5	77.9	viability, T/C [16]: 48%; viability, T/C [17]: 13.1%; viability, T/C [18]: 0.97%; viability, T/C [19]: 84.6%; viability, T/C [20]: 74.4%; viability, T/C [21]: 69.4%; viability, T/C [22]: 42.1%; viability, T/C [23]: 15.8%; viability, T/C [24]: 1.74%; viability, T/C [25]: 76.1%; viability, T/C [26]: 82.2%; viability, T/C [27]: 57.1%; viability, T/C [28]: 42.3%; viability, T/C [29]: 13.3%; viability, T/C [30]: 0.95%
O=C(C=Cc1cccc(S(=O)(=O)Nc2ccccc2)c1)NO + NC1CC1c1ccc(-c2cccc(O)c2)cc1	> 3000	296	293	294	265	99.8	109	88.8	48.7	8.83	99.3	92.8	99	87.9	45.2	9.89	93.6	78.8	94.4	92.4	viability, T/C [16]: 49.1%; viability, T/C [17]: 8.18%; viability, T/C [18]: 89%; viability, T/C [19]: 88.2%; viability, T/C [20]: 101%; viability, T/C [21]: 89.8%; viability, T/C [22]: 45.8%; viability, T/C [23]: 7.35%; viability, T/C [24]: 94.9%; viability, T/C [25]: 83.5%; viability, T/C [26]: 88.6%; viability, T/C [27]: 83.3%; viability, T/C [28]: 46%; viability, T/C [29]: 9.36%; viability, T/C [30]: 82.4%
